Experimental data published in ChEMBL document CHEMBL1144629, “Synthesis and in vivo antihyperglycemic activity of nature-mimicking furanyl-2-pyranones in STZ-S model” (2007).

Legend:
Assay type in all cases: functional
Set-up in all cases: scale not given: the % may be the effect or the level left
Rattus norvegicus [1] = assay: Antihyperglycemic activity in STZ-induced diabetic Sprague-Dawley rat assessed as decrease in blood glucose at 100 mg/kg, po after 30 mins relative to control
Rattus norvegicus [2] = assay: Antihyperglycemic activity in STZ-induced diabetic Sprague-Dawley rat assessed as decrease in blood glucose at 100 mg/kg, po after 60 mins relative to control
Rattus norvegicus [3] = assay: Antihyperglycemic activity in STZ-induced diabetic Sprague-Dawley rat assessed as decrease in blood glucose at 100 mg/kg, po after 90 mins relative to control
Rattus norvegicus [4] = assay: Antihyperglycemic activity in STZ-induced diabetic Sprague-Dawley rat assessed as decrease in blood glucose at 100 mg/kg, po after 120 mins relative to control
Rattus norvegicus [5] = assay: Antihyperglycemic activity in STZ-induced diabetic Sprague-Dawley rat assessed as decrease in blood glucose at 100 mg/kg, po after 180 mins relative to control
Rattus norvegicus [6] = assay: Antihyperglycemic activity in STZ-induced diabetic Sprague-Dawley rat assessed as decrease in blood glucose at 100 mg/kg, po after 240 mins relative to control
Rattus norvegicus [7] = assay: Antihyperglycemic activity in STZ-induced diabetic Sprague-Dawley rat assessed as decrease in blood glucose at 100 mg/kg, po after 5 hrs relative to control
Rattus norvegicus [8] = assay: Antihyperglycemic activity in STZ-induced diabetic Sprague-Dawley rat assessed as decrease in blood glucose at 100 mg/kg, po after 24 hrs relative to control

| SMILES | Activity (Rattus norvegicus [1]) [%] | Activity (Rattus norvegicus [2]) [%] | Activity (Rattus norvegicus [3]) [%] | Activity (Rattus norvegicus [4]) [%] | Activity (Rattus norvegicus [5]) [%] | Activity (Rattus norvegicus [6]) [%] | Activity (Rattus norvegicus [7]) [%] | Activity (Rattus norvegicus [8]) [%] |
| --- | --- | --- | --- | --- | --- | --- | --- | --- |
| CN(C)C(=N)NC(=N)N [METFORMIN] | 15.9 | 18.2 | 24.5 | 29.2 | 18.7 | 21.1 | 20.7 | 30 |
| CSc1cc(-c2ccco2)oc(=O)c1C#N | 11.8 | 16.5 | 19.6 | 19.8 | 8.1 | 2.3 | 6.8 | 6.7 |
| CSc1cc(-c2cc(C)oc2C)oc(=O)c1C(N)=O | 13.2 | 28.8 | 33 | 29.4 | 16.3 | 12.6 | 11.2 | 23.9 |
| N#Cc1c(N2CCN(c3ccccc3)CC2)cc(-c2ccco2)oc1=O | 11.8 | 15.7 | 20.2 | 15.9 | 1.9 | 3.9 | 6.1 | 2.5 |
| CSc1cc(-c2ccco2)oc(=O)c1C(N)=O | 8.5 | 9.6 | 6.3 | 8.9 | 1.2 | 1.3 | 5.52 | 19.3 |
| CSc1cc(-c2cc(C)oc2C)oc(=O)c1C#N | 12.6 | 16.2 | 21.2 | 16.5 | 2.3 | 2.5 | 5.2 | 4.5 |
| CN1CCN(c2cc(-c3ccco3)oc(=O)c2C#N)CC1 | 12.5 | 17.5 | 17.3 | 22.8 | 16.8 | 14.6 | 12.8 | 20 |
| Cc1cc(-c2cc(N3CCCCC3)c(C#N)c(=O)o2)c(C)o1 | 8.6 | 9.4 | 6.8 | 8.7 | 0.8 | 1 | 5.2 | 19.7 |
| N#Cc1c(N2CCOCC2)cc(-c2ccco2)oc1=O | 13.1 | 15.9 | 19.8 | 17.4 | 1.8 | 5.2 | 9.8 | 0.5 |
| Cc1cc(-c2cc(N3CCC(C)CC3)c(C#N)c(=O)o2)c(C)o1 | 12.5 | 16.3 | 20.9 | 16.8 | 2.6 | 2.8 | 5.5 | 4.2 |
| Cc1cc(-c2cc(N3CCOCC3)c(C#N)c(=O)o2)c(C)o1 | 16.6 | 18.4 | 24 | 29 | 18.5 | 20.7 | 20.3 | 29.7 |
| N#Cc1c(N2CCCCC2)cc(-c2ccco2)oc1=O | 12.8 | 17.5 | 21.1 | 21.3 | 7.5 | 1.4 | 4.8 | 10.4 |
| Cc1cc(-c2cc(N3CCCC3)c(C#N)c(=O)o2)c(C)o1 | 12.5 | 17.3 | 20.9 | 20.9 | 7.8 | 1.2 | 4.5 | 10.5 |
